Experiment [1] has as its target T1, cannabinoid CB1 receptor (CB1) (Mus musculus, UniProt P47746).
T1 construct: from tissue; host or cells: whole animal (female NMRI mice)
The experiment can be described thus: Antagonization of CB1-mediated hypothermia. It is filed as in vivo. Particulars: female NMRI mice; 1.25 mg/kg intraperitoneally; within 30 min. The protocol: The test is used to measure the potency of cannabinoid CB1 receptor (CB1) antagonists. What is measured is the extent to which the CB1 antagonists to be tested are capable of preventing or of antagonizing hypothermia induced by a CB1 agonist.
Female NMRI mice, 25-35 g in weight, are used. The mice are accustomed to the housing conditions for at least one week.
At time 0 min, the animals are treated orally, intravenously or intraperitoneally with the CB1 antagonist to be tested. 30 min later, the CB1 agonist CP55.940, 1.25 mg/kg, is administered to the mice intraperitoneally. This brings about a fall in the body temperature by 5-6° C. within 30 min. The body temperature is measured rectally for the first time 30 min before the test substance administration and then every 30 min after this administration, if appropriate immediately before a substance administration, over 4 hours.
The potency of the test substances is reported as the percentage decrease in the area under the temperature-time curve which is formed firstly by the average basal temperature, and secondly by the temperature-time curve, of the animals treated exclusively with the CB1 antagonist.

In experiment [2] the target is T2, hCB1R (Homo sapiens, UniProt P21554). In words: In vitro functional assay with recombinant cells (FLIPR), cannabinoid 1 receptor. It is filed as cell-based. Also noted: expressed in transfected cells; host or cells: HEK293. The note with it: recombinant HEK293 cells expressing CB1 and G-protein Galpha16; intracellular Ca2+ change against reference agonist. The protocol: (§1) Function-testing assays were performed by means of the FLIPR technique (“Fluorometric Imaging Plate Reader”, Molecular Devices Corp.).
(§2) To this end, ligand-induced changes in the intracellular concentration of Ca^2+ in recombinant HEK293 cells, which expressed both a cannabinoid receptor (CB1 or CB2) and G-protein Galpha16, were determined. For the studies, cells were sown into 96-well microtiter plates (60 000 cells/well) and left to grow overnight. The medium was removed and the cells were incubated in buffer which contained the fluorescent dye Fluo-4. After this loading with dye, the cells were washed, test substance was added dissolved in buffer, the mixture was incubated for 20 minutes, a known cannabinoid receptor agonist as a reference agonist was added in buffer and, finally, the changes in the intracellular Ca^2+ concentration were measured in the FLIPR unit.
Results were presented as the percentage change relative to the control (0%: analogous experiment without test substance and without reference agonist, i.e. only with buffer; 100%: analogous experiment without test substance, but with reference agonist in excess), and used to calculate dose/action curves, and IC50 values were determined.
The values of the functional assay compared to the cannabinoid 1 receptor including illustrative selectivities compared to the cannabinoid 2 receptor can be taken from table 1 which follows.

Experiment [3] concerns the target T2, hCB1R. In words: Binding to the CB1 receptor ([3H]-SR141716A displacement). Also noted: expressed in transfected cells; host or cells: CHO-K1. The note with it: CHO-K1/cannabinoid CB1 protein; ligand [3H]-SR141716A 0.5 nM; Ki from IC50 by Cheng-Prusoff. On the procedure:
Test compounds: The compounds (3 μl, 10 mM, 100% DMSO), pipetted into 96-well PP microtiter plates, were diluted with 27 μl of 100% DMSO (dimethyl sulfoxide). Proceeding from this solution, further 3-fold dilution steps were undertaken by transferring 10 μl in each case to a new PP microtiter plate and adding a further 20 μl of 100% DMSO. In each case 6 μl of these solutions were transferred into new 96-well PP microtiter plates and made up with 144 μl of assay buffer. The end concentrations ranged from 10 μM to 0.005 μM.
Negative control: AM 251, dissolved in assay buffer with 1% DMSO, was added to the dilution series in the microtiter plates as a control. The end concentration was 1 μM.
Blank control: assay buffer with 1% DMSO was added to the dilution series of the microtiter plates as a blank control.
High control: ^3H binding without addition of the compound
Low control: ^3H binding in the presence of 1 μM AM 251
The values were calculated using the corrected raw data.
The values reported were obtained as average values of a double determination. The IC50 values were calculated from the measurements with the program Xlfit, formula 205. Ki values were obtained from the IC50 and Kd values utilizing the Cheng-Prusoff equation: […]
Literature: Cheng, Y.-C., and Prusoff, W. H. (1973) Biochem. Pharmacol 22, 3099-3108

Another experiment deals with T3, hCB2R (Homo sapiens, UniProt P34972).
T3 construct: expressed in transfected cells; host or cells: HEK293
In words: In vitro functional assay with recombinant cells (FLIPR), cannabinoid 2 receptor. It is filed as cell-based. The note with it: recombinant HEK293 cells expressing CB2 and G-protein Galpha16; intracellular Ca2+ change against reference agonist. The protocol:
as §1, §2
Results were presented as the percentage change relative to the control (0%: analogous experiment without test substance and without reference agonist, i.e. only with buffer; 100%: analogous experiment without test substance, but with reference agonist in excess), and used to calculate dose/action curves, and IC50 values were determined. […]

The structures appear in SMILES notation.

T2 sequence (P21554 whole entry): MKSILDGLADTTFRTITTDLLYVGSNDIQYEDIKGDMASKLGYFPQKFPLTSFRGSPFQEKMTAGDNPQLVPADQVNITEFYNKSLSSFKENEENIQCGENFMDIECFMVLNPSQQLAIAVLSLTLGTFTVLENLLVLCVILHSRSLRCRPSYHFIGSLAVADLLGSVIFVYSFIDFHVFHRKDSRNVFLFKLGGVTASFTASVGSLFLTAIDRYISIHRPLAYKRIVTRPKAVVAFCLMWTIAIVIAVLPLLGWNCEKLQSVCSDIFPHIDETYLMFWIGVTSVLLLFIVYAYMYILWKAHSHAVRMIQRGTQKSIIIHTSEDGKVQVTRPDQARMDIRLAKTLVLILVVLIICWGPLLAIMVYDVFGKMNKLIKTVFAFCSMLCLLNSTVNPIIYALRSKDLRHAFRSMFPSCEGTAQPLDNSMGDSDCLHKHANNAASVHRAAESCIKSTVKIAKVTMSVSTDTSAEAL
T1 sequence (P47746 whole entry): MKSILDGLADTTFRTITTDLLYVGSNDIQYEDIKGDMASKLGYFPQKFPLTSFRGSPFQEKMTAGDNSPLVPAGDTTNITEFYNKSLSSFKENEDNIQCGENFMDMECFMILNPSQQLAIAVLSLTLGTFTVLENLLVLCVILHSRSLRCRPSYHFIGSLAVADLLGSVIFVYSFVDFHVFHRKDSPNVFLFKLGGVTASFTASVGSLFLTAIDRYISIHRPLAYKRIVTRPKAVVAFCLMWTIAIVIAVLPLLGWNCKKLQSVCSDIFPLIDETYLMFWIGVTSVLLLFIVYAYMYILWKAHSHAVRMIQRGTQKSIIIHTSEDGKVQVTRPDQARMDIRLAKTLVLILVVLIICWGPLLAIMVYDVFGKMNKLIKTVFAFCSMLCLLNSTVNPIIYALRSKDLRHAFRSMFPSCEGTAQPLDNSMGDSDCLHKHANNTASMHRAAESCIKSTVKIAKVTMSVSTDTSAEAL
T3 sequence (P34972 whole entry): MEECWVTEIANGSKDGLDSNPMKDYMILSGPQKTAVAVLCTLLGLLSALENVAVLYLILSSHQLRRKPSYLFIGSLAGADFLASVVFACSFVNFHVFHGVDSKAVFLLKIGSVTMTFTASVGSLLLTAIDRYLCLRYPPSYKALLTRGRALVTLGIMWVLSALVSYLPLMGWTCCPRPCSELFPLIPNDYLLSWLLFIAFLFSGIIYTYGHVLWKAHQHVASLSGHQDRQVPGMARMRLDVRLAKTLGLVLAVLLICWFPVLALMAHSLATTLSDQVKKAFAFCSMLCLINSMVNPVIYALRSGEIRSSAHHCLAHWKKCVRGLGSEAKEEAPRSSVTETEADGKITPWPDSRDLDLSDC

`CCCCCCC(C)(C)c1ccc([C@@H]2C[C@H](O)CC[C@H]2CCCO)c(O)c1` [CP55.940]: the “fall in the body temperature” value in experiment [1] is 5-6 °C.

The IC50 is the concentration at which inhibition is half-maximal. Consider `CC1(C)C(=O)N(c2ccc(F)c(C(F)(F)F)c2)C(=O)N1Cc1ccc(F)cc1Nc1ccc(N2CCNC2=O)cc1` [Example 16, 1-{4-fluoro-2-[4-(2-oxoimidazolidin-1-yl)phenylamino]benzyl}-3-(4-fluoro-3-trifluoromethylphenyl)-5,5-dimethylimidazolidine-2,4-dione], for which, at hCB1R [2], the IC50 was 23 nM. What is called Ki is a dissociation constant, usually derived from enzyme kinetics or from competition with a known ligand. Higher therefore signals weaker binding. `CC1(C)C(=O)N(c2ccc(F)c(C(F)(F)F)c2)C(=O)N1Cc1ccc(F)cc1Nc1ccc(N2CCCC2=O)cc1` [Example 4, 1-{4-fluoro-2-[4-(2-oxopyrrolidin-1-yl)phenylamino]benzyl}-3-(4-fluoro-3-trifluoromethylphenyl)-5,5-dimethylimidazolidine-2,4-dione] displayed an inhibition constant Ki at hCB1R [3] of 103 nM. On to `COc1ccc(Nc2ccc(Nc3cc(F)ccc3CN3C(=O)N(c4ccc(F)c(C(F)(F)F)c4)C(=O)C3(C)C)cc2)nn1` [Example 8, {4-fluoro-2-[4-(6-methoxypyridazin-3-ylamino)phenylamino]benzyl}-3-(4-fluoro-3-trifluoro-methylphenyl)-5,5-dimethylimidazolidine-2,4-dione], for which the IC50 on hCB1R [2] was 24 nM. Further, the inhibition constant (Ki) at hCB1R [3] came to 10 nM. Compound `CC1(C)C(=O)N(c2ccc(C#N)c(C(F)(F)F)c2)C(=O)N1Cc1ccccc1Nc1ccc(CN2CCNCC2=O)cc1` [Example 1, 4-(4,4-dimethyl-2,5-dioxo-3-{2-[4-(2-oxopiperazin-1-ylmethyl)phenylamino]-benzyl}imidazolidin-1-yl)-2-trifluoromethylbenzonitrile] registered an inhibition constant (Ki) on hCB1R [3] of 34 nM.

In the case of `CC1(C)C(=O)N(c2ccc(F)c(C(F)(F)F)c2)C(=O)N1Cc1ccc(F)cc1Nc1ccc(N2CCC(O)CC2)cc1` [Example 14, 1-{4-fluoro-2-[4-(4-hydroxypiperidin-1-yl)phenylamino]benzyl}-3-(4-fluoro-3-trifluoromethylphenyl)-5,5-dimethylimidazolidine-2,4-dione], at hCB1R [2], the half-maximal inhibitory concentration (IC50) is 9 nM. `COC(=O)C1CC(=O)N(c2ccc(Nc3cc(F)ccc3CN3C(=O)N(c4ccc(F)c(C(F)(F)F)c4)C(=O)C3(C)C)cc2)C1` (centres unmarked) [Example 6, methyl 1-(4-{5-fluoro-2-[3-(4-fluoro-3-trifluoromethylphenyl)-5,5-dimethyl-2,4-dioxoimidazolidin-1-ylmethyl]phenylamino}phenyl)-5-oxopyrrolidine-3-carboxylate]: the affinity at hCB1R [3], expressed as Ki, was 40 nM. Consider `CC1(C)C(=O)N(c2ccc(F)c(C(F)(F)F)c2)C(=O)N1Cc1ccc(F)cc1Nc1ccc(-n2cnc3ccccc32)cc1` [Example 5, 1-[2-(4-benzimidazol-1-ylphenylamino)-4-fluorobenzyl]-3-(4-fluoro-3-trifluoromethylphenyl)-5,5-dimethylimidazolidine-2,4-dione], for which the IC50 on hCB1R [2] was 6 nM. Further, affinity on hCB1R [3] was put at a Ki of 4 nM. As for `CC1(C)C(=O)N(c2ccc(F)c(C(F)(F)F)c2)C(=O)N1Cc1ccccc1Nc1ccc(-c2nnn[nH]2)cc1` [Example 2, 3-(4-fluoro-3-trifluoromethylphenyl)-5,5-dimethyl-1-{2-[4-(1H-tetrazol-5-yl)phenylamino]benzyl}imidazolidine-2,4-dione], the IC50 was 205 nM on hCB1R [2] and above 10000 nM on hCB2R. The same compound gave a Ki on hCB1R [3] of 108 nM. For the compound `CC1(C)C(=O)N(c2ccc(F)c(C(F)(F)F)c2)C(=O)N1Cc1ccc(F)cc1Nc1ccc(N2CCNCC2=O)cc1` [Example 13, 1-{4-fluoro-2-[4-(2-oxopiperazin-1-yl)phenylamino]benzyl}-3-(4-fluoro-3-trifluoromethylphenyl)-5,5-dimethylimidazolidine-2,4-dione], the IC50 at hCB1R [2] turned out to be 125 nM. Turning to `CCOc1ccc(Nc2ccc(Nc3cc(F)ccc3CN3C(=O)N(c4ccc(F)c(C(F)(F)F)c4)C(=O)C3(C)C)cc2)nn1` [Example 7, 1-{2-[4-(6-ethoxypyridazin-3-ylamino)phenylamino]-4-fluorobenzyl}-3-(4-fluoro-3-trifluoromethylphenyl)-5,5-dimethyl-imidazolidine-2,4-dione], on hCB1R [2], the IC50 came out at 32 nM. On hCB1R [3], the inhibitory constant (Ki) was 18 nM. In the case of `CC1(C)C(=O)N(c2ccc(F)c(C(F)(F)F)c2)C(=O)N1Cc1ccc(F)cc1Nc1ccc(Nc2ccc(Cl)nn2)cc1` [Example 10, 1-{2-[4-(6-chloropyridazin-3-ylamino)phenylamino]-4-fluorobenzyl}-3-(4-fluoro-3-trifluoromethylphenyl)-5,5-dimethyl-imidazolidine-2,4-dione], the half-maximal inhibitory concentration (IC50) on hCB1R [2] came out at 34 nM. The Ki on hCB1R [3] is 7 nM. Consider `CC1(C)C(=O)N(c2ccc(F)c(C(F)(F)F)c2)C(=O)N1Cc1ccc(F)cc1Nc1ccc(C2NC(=O)NC2=O)cc1` (centres unmarked) [Example 15, 1-{2-[4-(2,5-dioxoimidazolidin-4-yl)phenylamino]-4-fluorobenzyl}-3-(4-fluoro-3-trifluoromethylphenyl)-5,5-dimethylimidazolidine-2,4-dione], for which the IC50 at hCB1R [2] turned out to be 60 nM. As to `CC1(C)C(=O)N(c2ccc(F)c(C(F)(F)F)c2)C(=O)N1Cc1ccc(F)cc1Nc1ccc(OC2CCOCC2)cc1` [Example 18, 1-{4-fluoro-2-[4-(tetrahydropyran-4-yloxy)phenylamino]benzyl}-3-(4-fluoro-3-trifluoromethylphenyl)-5,5-dimethylimidazolidine-2,4-dione], the IC50 at hCB1R [2] was 93 nM.

Source of the values: patent publication US20110046105A1, “Heterocycle-substituted imidazolidine-2,4-diones, process for preparation thereof, medicaments comprising them and use thereof” (SANOFI-AVENTIS, priority 2008, published 2011).
